Results as given in PubChem BioAssay (NCI).
Values joined by “and” are separate entries in the source; they are usually repeats but may differ in a detail not shown here. Equal entries are not always repeated.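 96-well plates; 48 h exposure; 5 concentrations. Endpoints by linear interpolation between flanking doses. Not reached: highest tested concentration assigned. GI50 is the concentration that inhibits growth by half. The concentration for full growth arrest is given as TGI.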 *1 amine or outer side, *2 acyl side, *3 side chain or, on linkers, in order; H or OH if unused. Where a SMILES comes first, the peptide text is derived from it. Bridges are numbered along the chain shown (N, C = ends). [ ]: non-standard residue; d: D form. The star is where a group is joined. Phe(3-Me) = Cc1cccc(C[C@H](N)C(=O)O)c1; NH(4-Cl-2-F-phenyl) = Fc1cc(Cl)ccc1N*; Pro(4R-Me) = C[C@H]1CN[C@H](C(=O)O)C1; Propanoyl(3-NMe2) = CN(C)CCC(=O)*; Hyp = O=C(O)[C@@H]1C[C@@H](O)CN1; aThr = C[C@H](O)[C@H](N)C(=O)O; Pip = O=C(O)[C@@H]1CCCCN1; CO = O=C([*:1])[*:2]

Columns and labels:
Experiment in all cases: inhibition of tumour cell growth, NCI panel, 48 h
EKVX NSCLC = tested on: EKVX NSCLC
HOP-62 NSCLC = tested on: HOP-62 NSCLC
HL-60(TB) leukemia = tested on: HL-60(TB) leukemia
MALME-3M melanoma = tested on: MALME-3M melanoma
SW-620 colon = tested on: SW-620 colon
786-0 renal = tested on: 786-0 renal
SR leukemia = tested on: SR leukemia
KM12 colon = tested on: KM12 colon
UACC-257 melanoma = tested on: UACC-257 melanoma
SNB-19 CNS = tested on: SNB-19 CNS

Compound | GI50 (EKVX NSCLC) [µM] | TGI (EKVX NSCLC) | GI50 (HOP-62 NSCLC) | TGI (HOP-62 NSCLC) | GI50 (HL-60(TB) leukemia) [µM] | TGI (HL-60(TB) leukemia) [µM] | GI50 (MALME-3M melanoma) [µM] | TGI (MALME-3M melanoma) [µM] | GI50 (SW-620 colon) | TGI (SW-620 colon) [µM] | GI50 (786-0 renal) | TGI (786-0 renal) | GI50 (SR leukemia) | TGI (SR leukemia) [µM] | GI50 (KM12 colon) | TGI (KM12 colon) [µM] | GI50 (UACC-257 melanoma) [µM] | TGI (UACC-257 melanoma) [µM] | GI50 (SNB-19 CNS) | TGI (SNB-19 CNS) [µM]
Cc1ccc(S(=O)(=O)n2cc(-c3nnnn3-c3ccc(Cl)cc3)c(=O)c3ccccc32)cc1 | > 100 | > 100 µM | 73.6 µM | > 100 µM | 12.9 | 31 | > 100 | > 100 | > 100 µM | > 100 | > 100 µM | > 100 µM | 40.9 µM | > 100 | > 100 µM | > 100 | > 100 | > 100 | > 100 µM | > 100
COc1ccc(-c2coc3cc(OC)cc(O)c3c2=O)cc1 |  | > 100 µM |  | > 100 µM |  | > 100 |  | > 100 |  | > 100 |  | > 100 µM |  | > 100 |  | > 100 |  | > 100 |  | > 100
CCCN1CCN(c2ccc3nc(-c4ccc5nc(-c6ccc(OCC)c(OCC)c6)[nH]c5c4)[nH]c3c2)CC1 | 1.4 | 7.72 µM | 0.956 µM | 3.2 µM | 0.339 | 2.74 | 0.0647 | 1.19 | 0.207 µM | 0.808 | 0.986 µM | 2.33 µM | 0.263 µM | 0.896 | 0.684 µM | 2.08 | 0.64 | 2.47 | 0.616 µM | 1.98
CN(C)/C(N)=N/C(N)=S |  | > 100 µM |  | > 100 µM |  | > 100 |  | > 100 |  | > 100 |  | > 100 µM |  | > 100 |  | > 100 |  | > 100 |  | > 100
N=c1ccn2c(n1)O[C@@H]1[C@@H](O)[C@H](CO)O[C@@H]12 | > 100 | > 100 µM | 0.783 µM | 23 µM | 8.41 | > 100 | 2.57 | > 100 | 4.59 µM | > 100 | 2.46 µM | 50.3 µM | 0.962 µM | 21 | 27.3 µM | > 100 | 35 | > 100 | 1.44 µM | > 100
O=C(CN1CCN(c2ccc(Cl)cc2)CC1)N1CCN(c2nnc(-c3ccccc3)c(-c3ccccc3)n2)CC1 | 7.57 | > 100 µM | > 100 µM | > 100 µM | 2.33 | > 100 | 2.7 | > 100 | 38.9 µM | > 100 | 5.64 µM | > 100 µM | 2.73 µM | 15.7 | 4.04 µM | > 100 | 26.6 | > 100 | > 100 µM | > 100
COc1ccc(C#CCC(OC2OC(CO)C(O)C(O)C2O)C(O)c2ccc(OC)c(OC)c2)cc1OC (stereo not given) |  | > 100 µM |  | > 100 µM |  | > 100 |  | > 100 |  | > 100 |  | > 100 µM |  | > 100 |  | > 100 |  | > 100 |  | > 100
CC1=C(C(=O)Nc2ccccc2C)C(c2ccc(C3C(C(=O)Nc4ccccc4C)=CNC=C3C(=O)Nc3ccccc3C)cc2)C(C(=O)Nc2ccccc2C)=C(C)N1 |  | 40.7 µM |  | 48.7 µM |  | 29.9 |  | 38.9 |  | 32.6 |  | 29.3 µM |  | 16.7 |  | 29.2 |  | 33.2 |  | 49.1
CCN1CCN(C(=O)[C@]23CCC(C)(C)C[C@@H]2C2=CC[C@@H]4[C@@]5(C)C/C(=C/c6cccnc6)C(=O)C(C)(C)[C@@H]5CC[C@@]4(C)[C@]2(C)CC3)CC1 | 1.9 | 6.48 µM | 1.88 µM | 3.75 µM | 0.443 | 3.34 | 1.53 | 2.91 | 1.78 µM | 3.88 | 1.6 µM | 3.08 µM | 0.706 µM | 5.1 | 1.58 µM | 3.26 | 1.62 | 4.29 | 1.68 µM | 3.46
Cc1ccccc1/C=C1\CN(C(=O)OC(C)(C)C)C/C(=C\c2ccccc2C)C1=O | 2.34 | 6.88 µM | 3.43 µM | 11.3 µM | 2.47 | 8.8 | 1.81 | 3.6 | 2.99 µM | 7.07 | 1.84 µM | 3.52 µM | 1.89 µM | > 100 | 2.03 µM | 4.68 | 3.12 | 9.92 | 1.81 µM | 4.38
CC(C)[C@@H]1CC[C@@H]2[C@@H]1[C@H](OC(=O)/C=C/c1ccccc1)[C@]1(C(C)C)C[C@@H](OC(=O)CO)[C@@]2(C)O1 | 4.34 | 8.8 µM | 6.45 µM | 14.5 µM | 8.07 | 18.4 | 5.97 | 11.1 | 6.26 µM | 12.9 | 4.55 µM | 9.23 µM | 7.91 µM | 18.7 | 7.07 µM | 14.6 | 7.83 | 17.6 | 5.37 µM | 10.8
CC(C)CC(=O)NS(=O)(=O)c1ccccc1 |  | > 100 µM |  | > 100 µM |  | > 100 |  | > 100 |  | > 100 |  | > 100 µM |  | > 100 |  | > 100 |  | > 100 |  | > 100
CC1=C(c2cc(C(=O)Nc3nccs3)nc(NC#N)n2)Sc2ccccc2N1 |  | > 100 µM |  | > 100 µM |  | > 100 |  | > 100 |  | > 100 |  | > 100 µM |  | > 100 |  | > 100 |  | > 100 |  | > 100
COc1ccc(/C(C)=N/NC(N)=S)c(OC)c1 |  | > 100 µM |  | > 100 µM |  | > 100 |  | > 100 |  | > 100 |  | > 100 µM |  | > 100 |  | > 100 |  | > 100 |  | > 100
COc1ccc(CNc2nc(NCc3ccc(OC)cc3)c3n[nH]c(C(C)C)c3n2)cc1 | 8.09 | 23.8 µM | 10 µM | 24.4 µM | 2.75 | 6.44 | 7.5 | > 100 | 3.27 µM | > 100 | 4.07 µM | 20.6 µM | 2.48 µM | 6.17 | 4.29 µM | > 100 | 16.4 | 30.8 | 4.46 µM | 23.1
NC[C@@](O)(c1ccc(Cl)cc1)c1ccc(-c2cn[nH]c2)cc1 | 0.556 | > 10 µM | 2.04 µM and 0.89 µM | > 100 µM | 1.7 | 4.13 | 1.57 | 3.08 | 2.13 µM and 1.56 µM |  | 0.341 µM and 0.473 µM | 10.6 µM and 2.2 µM | 1.16 µM | 4.64 | 3.44 µM and 3.48 µM | > 100 | 1.7 | 4.57 | 3.75 µM and 1.82 µM | 
COc1cc(-c2cc(CCC(=O)Nc3ccccc3[N+](=O)[O-])n(-c3ccc([N+](=O)[O-])cc3[N+](=O)[O-])n2)ccc1O | > 100 | > 100 µM | > 100 µM | > 100 µM | > 100 | > 100 | > 100 | > 100 | > 100 µM | > 100 | > 100 µM | > 100 µM |  | > 10 |  | > 10 |  | > 10 | > 100 µM | > 100
Cn1c(=S)sc2nc3ccccc3n2c1=S |  | 44.6 µM |  | 35.2 µM |  | 5.07 |  | 31.2 |  | 29.2 |  | 33.6 µM |  | 23.2 |  | 27.4 |  | 28.4 |  | 33.6
Cc1cccc(C[C@H](NC(=O)Nc2ccc(Cl)cc2F)C(=O)N[C@@H]2C(=O)N3C[C@H](OC(=O)CCN(C)C)C[C@H]3C(=O)N3CCCC[C@H]3C(=O)N[C@@H](C)C(=O)N3C[C@H](C)C[C@H]3C(=O)O[C@H]2C)c1 ({NH(4-Cl-2-F-phenyl)-CO}-[Phe(3-Me)][aThr][Hyp](Propanoyl(3-NMe2))[Pip]A[Pro(4R-Me)]; ester 2-C) | 0.976 | 6.25 µM | 0.536 µM | 7.24 µM | 0.354 | 1.9 | 0.567 | 1.97 | 0.6 µM | 2.94 | 1.39 µM | 5.66 µM | 0.624 µM | 3.94 | 0.746 µM | 2.34 | 0.385 | 2.14 | 0.389 µM | 11.5
O=C(Nc1ccc(Br)cc1F)c1cc(Br)ccc1O | 1.03 | 11.7 µM | 1.45 µM | 6.36 µM | 0.59 | 3.59 | 0.32 | 1.82 | 1.14 µM | 7.42 | 1.66 µM | 6.26 µM | 2.07 µM | 11.8 | 1.93 µM | 5.66 | 0.829 | 5.34 | 0.502 µM | 27.9
CCSc1nc2n(c(=S)n1)CCN2C |  | 69.6 µM |  | 68.8 µM |  | 46.1 |  | 36.2 |  | 56.9 |  | 52 µM |  | 29.9 |  | 52.3 |  | 25.5 |  | 37.8
CC(=O)OCC1OC(n2c(-c3ccccc3)c(C)c(C)c(C#N)c2=S)C(OC(C)=O)C(OC(C)=O)C1OC(C)=O (stereo not given) |  | 46.9 µM and 77 µM | 14.3 µM and > 100 µM | 40.4 µM and > 100 µM |  | > 100 |  | > 100 | 22.9 µM and > 100 µM | > 100 | 6.84 µM and 23.2 µM | 19.3 µM and 56.1 µM | 32.3 µM and 95.3 µM | > 100 |  | > 100 |  | > 100 | 17.9 µM and 44.9 µM | > 100
